Experiments:
Assay type in all cases: in vivo, mongrel adult dogs
[1] = system: arterial mean blood pressure; experiment: Effects on arterial mean blood pressure
Procedure, shortened: (§1)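 Anaesthetised (pentobarbital sodium) thoracotomised mongrel dogs of either sex, about 10 kg, dosed intravenously via brachial vein, compounds in 0.2% CMC, HCl solution (pH 6) or saline. Arterial pressure via carotid cannula transducer, aortic and coronary sinus outflow by electromagnetic flowmeter, sinus pO2 by electrode after Morawitz cannulation.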

[2] = system: heart rate; experiment: Effects on heart rate
Procedure, shortened: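 Adult mongrel dogs of both sexes were anesthetized with pentobarbital and thoracotomized. Test agents, suspended or dissolved in 0.2% CMC, pH 6 HCl solution or saline, were injected intravenously into the brachial vein. Hemodynamic and coronary sinus parameters were then recorded.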

[3] = system: coronary sinus out flow; experiment: Effects on coronary sinus out flow
Procedure, shortened: as §1

[4] = system: coronary sinus oxygen tension; experiment: Effects on coronary sinus oxygen tension
Procedure, shortened: as §1

[5] = system: aortic blood flow; experiment: Effects on aortic blood flow
Procedure, shortened: as §1

COc1ccc(C(C#N)N2CCN(CC(=O)N3CCCC3)CC2)cc1OC (centres unmarked) [Compound C]
Changes (%) of basal values, arterial mean blood pressure ([1]; 2.0 mg/kg i.v., 1 min): +0.8%
Changes (%) of basal values, arterial mean blood pressure ([1]; 2.0 mg/kg i.v., 5 min): 0%
Changes (%) of basal values, arterial mean blood pressure ([1]; 2.0 mg/kg i.v., 10 min): 0%
Changes (%) of basal values, arterial mean blood pressure ([1]; 2.0 mg/kg i.v., 20 min): 0%
Changes (%) of basal values, arterial mean blood pressure ([1]; 2.0 mg/kg i.v., 30 min): 0%
Changes (%) of basal values, arterial mean blood pressure ([1]; 2.0 mg/kg i.v., 40 min): 0%
Changes (%) of basal values, arterial mean blood pressure ([1]; 2.0 mg/kg i.v., imm.): -4.2%
Changes (%) of basal values, arterial mean blood pressure ([1]; 6.0 mg/kg i.v., 1 min): -3.9%
Changes (%) of basal values, arterial mean blood pressure ([1]; 6.0 mg/kg i.v., 5 min): -1.6%
Changes (%) of basal values, arterial mean blood pressure ([1]; 6.0 mg/kg i.v., 10 min): -0.7%
Changes (%) of basal values, arterial mean blood pressure ([1]; 6.0 mg/kg i.v., 20 min): -3.6%
Changes (%) of basal values, arterial mean blood pressure ([1]; 6.0 mg/kg i.v., 30 min): -2.5%
Changes (%) of basal values, arterial mean blood pressure ([1]; 6.0 mg/kg i.v., 40 min): -1.3%
Changes (%) of basal values, arterial mean blood pressure ([1]; 6.0 mg/kg i.v., imm.): -12.1%
Changes (%) of basal values, arterial mean blood pressure ([1]; 20.0 mg/kg i.v., 1 min): -17.1%
Changes (%) of basal values, arterial mean blood pressure ([1]; 20.0 mg/kg i.v., 5 min): -18.8%
Changes (%) of basal values, arterial mean blood pressure ([1]; 20.0 mg/kg i.v., 10 min): -22.2%
Changes (%) of basal values, arterial mean blood pressure ([1]; 20.0 mg/kg i.v., 20 min): -27.2%
Changes (%) of basal values, arterial mean blood pressure ([1]; 20.0 mg/kg i.v., 30 min): -28.0%
Changes (%) of basal values, arterial mean blood pressure ([1]; 20.0 mg/kg i.v., 40 min): -26.1%
Changes (%) of basal values, arterial mean blood pressure ([1]; 20.0 mg/kg i.v., imm.): -29.0%
Effects on arterial mean blood pressure (in words) ([1]; i.v., anesthetized dogs): hypotensive effects being proportioned to their doses which were of long duration
Changes(%) of basal values, heart rate ([2]; 2.0 mg/kg i.v., 1 min): +1.1%
Changes(%) of basal values, heart rate ([2]; 2.0 mg/kg i.v., 5 min): +0.3%
Changes(%) of basal values, heart rate ([2]; 2.0 mg/kg i.v., 10 min): -0.2%
Changes(%) of basal values, heart rate ([2]; 2.0 mg/kg i.v., 20 min): 0%
Changes(%) of basal values, heart rate ([2]; 2.0 mg/kg i.v., 30 min): 0%
Changes(%) of basal values, heart rate ([2]; 2.0 mg/kg i.v., 40 min): 0%
Changes(%) of basal values, heart rate ([2]; 2.0 mg/kg i.v., imm.): -2.8%
Changes(%) of basal values, heart rate ([2]; 6.0 mg/kg i.v., 1 min): +5.1%
Changes(%) of basal values, heart rate ([2]; 6.0 mg/kg i.v., 5 min): +1.3%
Changes(%) of basal values, heart rate ([2]; 6.0 mg/kg i.v., 10 min): -0.3%
Changes(%) of basal values, heart rate ([2]; 6.0 mg/kg i.v., 20 min): -1.0%
Changes(%) of basal values, heart rate ([2]; 6.0 mg/kg i.v., 30 min): 0%
Changes(%) of basal values, heart rate ([2]; 6.0 mg/kg i.v., 40 min): 0%
Changes(%) of basal values, heart rate ([2]; 6.0 mg/kg i.v., imm.): -5.3%
Changes(%) of basal values, heart rate ([2]; 20.0 mg/kg i.v., 1 min): +0.8%
Changes(%) of basal values, heart rate ([2]; 20.0 mg/kg i.v., 5 min): +1.6%
Changes(%) of basal values, heart rate ([2]; 20.0 mg/kg i.v., 10 min): -1.0%
Changes(%) of basal values, heart rate ([2]; 20.0 mg/kg i.v., 20 min): -1.4%
Changes(%) of basal values, heart rate ([2]; 20.0 mg/kg i.v., 30 min): -28%
Changes(%) of basal values, heart rate ([2]; 20.0 mg/kg i.v., 40 min): -2.0%
Changes(%) of basal values, heart rate ([2]; 20.0 mg/kg i.v., imm.): -25.6%
Effects on heart rate (in words) ([2]; i.v., anesthetized dogs): a slight negative chronotropic effect
Changes(%) of basal values, coronary sinus out flow ([3]; 2.0 mg/kg i.v., 1 min): +4.7%
Changes(%) of basal values, coronary sinus out flow ([3]; 2.0 mg/kg i.v., 5 min): +4.9%
Changes(%) of basal values, coronary sinus out flow ([3]; 2.0 mg/kg i.v., 10 min): +3.2%
Changes(%) of basal values, coronary sinus out flow ([3]; 2.0 mg/kg i.v., 20 min): +2.1%
Changes(%) of basal values, coronary sinus out flow ([3]; 2.0 mg/kg i.v., 30 min): +1.6%
Changes(%) of basal values, coronary sinus out flow ([3]; 2.0 mg/kg i.v., 40 min): +1.1%
Changes(%) of basal values, coronary sinus out flow ([3]; 2.0 mg/kg i.v., imm.): +17.8%
Changes(%) of basal values, coronary sinus out flow ([3]; 6.0 mg/kg i.v., 1 min): +50.7%
Changes(%) of basal values, coronary sinus out flow ([3]; 6.0 mg/kg i.v., 5 min): +28.6%
Changes(%) of basal values, coronary sinus out flow ([3]; 6.0 mg/kg i.v., 10 min): +19.4%
Changes(%) of basal values, coronary sinus out flow ([3]; 6.0 mg/kg i.v., 20 min): +18.2%
Changes(%) of basal values, coronary sinus out flow ([3]; 6.0 mg/kg i.v., 30 min): +14.3%
Changes(%) of basal values, coronary sinus out flow ([3]; 6.0 mg/kg i.v., 40 min): +7.6%
Changes(%) of basal values, coronary sinus out flow ([3]; 6.0 mg/kg i.v., imm.): +58.2%
Changes(%) of basal values, coronary sinus out flow ([3]; 20.0 mg/kg i.v., 1 min): +103.2%
Changes(%) of basal values, coronary sinus out flow ([3]; 20.0 mg/kg i.v., 5 min): +92.1%
Changes(%) of basal values, coronary sinus out flow ([3]; 20.0 mg/kg i.v., 10 min): +80.8%
Changes(%) of basal values, coronary sinus out flow ([3]; 20.0 mg/kg i.v., 20 min): +56.2%
Changes(%) of basal values, coronary sinus out flow ([3]; 20.0 mg/kg i.v., 30 min): +36.2%
Changes(%) of basal values, coronary sinus out flow ([3]; 20.0 mg/kg i.v., 40 min): +30.0%
Changes(%) of basal values, coronary sinus out flow ([3]; 20.0 mg/kg i.v., imm.): +101.9%
Effects on coronary sinus out flow (in words) ([3]; i.v., anesthetized dogs): a marked increasing effect on coronary sinus out flow, which was proportioned to doses thereof and of long duration
Changes(%) of basal values, coronary sinus oxygen tension ([4]; 2.0 mg/kg i.v., 1 min): +5.4%
Changes(%) of basal values, coronary sinus oxygen tension ([4]; 2.0 mg/kg i.v., 5 min): +2.8%
Changes(%) of basal values, coronary sinus oxygen tension ([4]; 2.0 mg/kg i.v., 10 min): +2.0%
Changes(%) of basal values, coronary sinus oxygen tension ([4]; 2.0 mg/kg i.v., 20 min): +1.1%
Changes(%) of basal values, coronary sinus oxygen tension ([4]; 2.0 mg/kg i.v., 30 min): 0%
Changes(%) of basal values, coronary sinus oxygen tension ([4]; 2.0 mg/kg i.v., 40 min): 0%
Changes(%) of basal values, coronary sinus oxygen tension ([4]; 2.0 mg/kg i.v., imm.): +12.1%
Changes(%) of basal values, coronary sinus oxygen tension ([4]; 6.0 mg/kg i.v., 1 min): +29.2%
Changes(%) of basal values, coronary sinus oxygen tension ([4]; 6.0 mg/kg i.v., 5 min): +22.3%
Changes(%) of basal values, coronary sinus oxygen tension ([4]; 6.0 mg/kg i.v., 10 min): +19.8%
Changes(%) of basal values, coronary sinus oxygen tension ([4]; 6.0 mg/kg i.v., 20 min): +15.0%
Changes(%) of basal values, coronary sinus oxygen tension ([4]; 6.0 mg/kg i.v., 30 min): +14.3%
Changes(%) of basal values, coronary sinus oxygen tension ([4]; 6.0 mg/kg i.v., 40 min): +12.0%
Changes(%) of basal values, coronary sinus oxygen tension ([4]; 6.0 mg/kg i.v., imm.): +36.9%
Changes(%) of basal values, coronary sinus oxygen tension ([4]; 20.0 mg/kg i.v., 1 min): +96.2%
Changes(%) of basal values, coronary sinus oxygen tension ([4]; 20.0 mg/kg i.v., 5 min): +86.7%
Changes(%) of basal values, coronary sinus oxygen tension ([4]; 20.0 mg/kg i.v., 10 min): +70.4%
Changes(%) of basal values, coronary sinus oxygen tension ([4]; 20.0 mg/kg i.v., 20 min): +63.7%
Changes(%) of basal values, coronary sinus oxygen tension ([4]; 20.0 mg/kg i.v., 30 min): +60.9%
Changes(%) of basal values, coronary sinus oxygen tension ([4]; 20.0 mg/kg i.v., 40 min): +51.5%
Changes(%) of basal values, coronary sinus oxygen tension ([4]; 20.0 mg/kg i.v., imm.): +79.1%
Effects on coronary sinus oxygen tension (in words) ([4]; i.v., anesthetized dogs): a significant increase in coronary sinus oxygen tension, effect of which was of long duration
Changes (%) of basal values, aortic blood flow ([5]; 2.0 mg/kg i.v., 1 min): +2.3%
Changes (%) of basal values, aortic blood flow ([5]; 2.0 mg/kg i.v., 5 min): +0.7%
Changes (%) of basal values, aortic blood flow ([5]; 2.0 mg/kg i.v., 10 min): -1.5%
Changes (%) of basal values, aortic blood flow ([5]; 2.0 mg/kg i.v., 20 min): -0.3%
Changes (%) of basal values, aortic blood flow ([5]; 2.0 mg/kg i.v., 30 min): -0.1%
Changes (%) of basal values, aortic blood flow ([5]; 2.0 mg/kg i.v., 40 min): 0%
Changes (%) of basal values, aortic blood flow ([5]; 2.0 mg/kg i.v., imm.): +1.1%
Changes (%) of basal values, aortic blood flow ([5]; 6.0 mg/kg i.v., 1 min): +3.4%
Changes (%) of basal values, aortic blood flow ([5]; 6.0 mg/kg i.v., 5 min): +1.1%
Changes (%) of basal values, aortic blood flow ([5]; 6.0 mg/kg i.v., 10 min): 0%
Changes (%) of basal values, aortic blood flow ([5]; 6.0 mg/kg i.v., 20 min): -1.0%
Changes (%) of basal values, aortic blood flow ([5]; 6.0 mg/kg i.v., 30 min): -2.0%
Changes (%) of basal values, aortic blood flow ([5]; 6.0 mg/kg i.v., 40 min): -1.1%
Changes (%) of basal values, aortic blood flow ([5]; 6.0 mg/kg i.v., imm.): +8.5%
Changes (%) of basal values, aortic blood flow ([5]; 20.0 mg/kg i.v., 1 min): +6.2%
Changes (%) of basal values, aortic blood flow ([5]; 20.0 mg/kg i.v., 5 min): +4.8%
Changes (%) of basal values, aortic blood flow ([5]; 20.0 mg/kg i.v., 10 min): +1.3%
Changes (%) of basal values, aortic blood flow ([5]; 20.0 mg/kg i.v., 20 min): -7.1%
Changes (%) of basal values, aortic blood flow ([5]; 20.0 mg/kg i.v., 30 min): -11.9%
Changes (%) of basal values, aortic blood flow ([5]; 20.0 mg/kg i.v., 40 min): -8.3%
Changes (%) of basal values, aortic blood flow ([5]; 20.0 mg/kg i.v., imm.): +15.8%
Effects on aortic blood flow (in words) ([5]; i.v., anesthetized dogs): an increase in blood flow immediately after administration, followed by a decrease in blood flow

Source: US4068070A, “α-Cyanoamine compounds and a process for producing the same” (Fuji Chemical Industry Co., Ltd., priority 1974, dated 1978)
